From US20260234137A1, “BICYCLIC ENHANCERS OF THE PARTICULATE GUANYLYL CYCLASE RECEPTOR A” (University of Florida Research Foundation, Incorporated, priority 2022, published 2026)
“Also recorded” adds a separate entry of the source. Like-named read-outs stand apart in the source and are kept apart here. Each block holds one compound with its values, some of them ahead of it.

Legend:
[1] = target: T1, human GC-A (Homo sapiens, UniProt P16066); assay: cGMP potentiation (HTRF) in human GC-A overexpressing HEK293 cells with EC20 ANP; assay type: cell-based; settings: for IC50: Table 3, additional compounds, modulation of pGC-A; for Emax: HEK293
T1 construct: host or cells: HEK293
T1 sequence (P16066 33-1061): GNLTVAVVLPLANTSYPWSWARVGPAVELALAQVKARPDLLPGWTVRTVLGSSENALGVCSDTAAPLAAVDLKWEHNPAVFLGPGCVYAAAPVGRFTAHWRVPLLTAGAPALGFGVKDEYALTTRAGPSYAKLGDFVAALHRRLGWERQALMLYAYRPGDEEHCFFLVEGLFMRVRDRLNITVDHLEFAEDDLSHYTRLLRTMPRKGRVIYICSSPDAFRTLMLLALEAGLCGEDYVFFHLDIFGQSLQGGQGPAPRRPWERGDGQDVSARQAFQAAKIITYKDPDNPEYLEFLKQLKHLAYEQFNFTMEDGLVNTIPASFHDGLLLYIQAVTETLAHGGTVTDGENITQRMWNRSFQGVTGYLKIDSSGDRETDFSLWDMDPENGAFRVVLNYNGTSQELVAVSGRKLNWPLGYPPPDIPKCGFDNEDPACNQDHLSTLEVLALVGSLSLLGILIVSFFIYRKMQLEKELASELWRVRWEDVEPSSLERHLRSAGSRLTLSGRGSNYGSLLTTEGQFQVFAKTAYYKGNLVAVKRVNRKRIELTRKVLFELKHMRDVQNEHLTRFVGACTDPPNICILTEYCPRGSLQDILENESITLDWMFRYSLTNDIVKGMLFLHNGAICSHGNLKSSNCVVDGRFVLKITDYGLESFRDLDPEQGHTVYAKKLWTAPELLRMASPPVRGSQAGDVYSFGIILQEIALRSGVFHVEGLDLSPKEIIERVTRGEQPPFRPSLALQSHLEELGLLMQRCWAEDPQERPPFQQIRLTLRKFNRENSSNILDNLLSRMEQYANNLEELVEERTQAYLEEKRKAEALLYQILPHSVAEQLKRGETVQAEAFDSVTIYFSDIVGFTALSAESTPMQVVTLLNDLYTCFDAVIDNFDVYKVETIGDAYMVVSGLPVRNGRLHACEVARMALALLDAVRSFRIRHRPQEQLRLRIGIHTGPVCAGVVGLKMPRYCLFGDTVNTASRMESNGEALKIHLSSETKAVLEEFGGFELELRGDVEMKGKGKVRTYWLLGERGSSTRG
T1 sequence (P01160 124-151 partner limits assumed): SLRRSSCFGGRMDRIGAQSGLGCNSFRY
Protocol: Test compounds were evaluated for potentiation of cGMP in human GC-A overexpressing HEK293 cells (Cardiorenal Research Laboratory, Mayo Clinic). Test compounds at 10 mM DMSO stock concentration were dispensed into 384 well small volume white plates using Tecan D300e digital dispenser starting at 5 μM concentration and diluted 2-fold for 10-point concentration response. Wells were backfilled with DMSO such that the final concentration of DMSO in all wells was maintained at 0.3% DMSO. Atrial natriuretic peptide (ANP, Phoenix Pharmaceuticals) peptide ANP was prepared as working stock aliquots at 5 μM in phosphate-buffered solution (PBS) with 0.1% bovine serum albumin (BSA) and diluted to […] in buffer+Tween20 at 0.3% and added to plates to a final concentration of 20 pM (EC20). GC-A cells in suspension […] in OptiMem media (11058-021) supplemented with 2% fetal bovine serum were plated at 1×10^6 cells/mL and assay plates were spun at 1000 rpm for 30 sec and incubated at RT for 30 min. GC-A-mediated activation of cGMP production was measured using cGMP CisBio detection homogenous time-resolved florescence (HTRF) competition assay using labeled-cGMP in human GC-A-overexpressing HEK293 cells. 5 μL of d-2 acceptor was dispensed into each well followed by addition of 5 μL of Anti-cGMP Eu-Cryptate antibody donor and plates were spun at 1000 rpm for 30 sec and incubated in the dark at RT for 1 hr. HTRF florescence was read on the ClarioStar microplate reader (BMG). A 100% response was determined from wells in the absence of compound and presence of saturating concentration of ANP (10 nM), and 0% response was determined from wells containing an EC20 concentration of ANP determined for each new lot of ANP. EC20 values of ANP were maintained in the range of 15-30 pM across all assay plates tested.
Test compounds were tested in the absence of ANP to determine agonist activity.

[2] = target: hERG channel (Homo sapiens, UniProt Q12809); assay: hERG binding / selectivity over hERG
Sequence of hERG channel (Q12809 whole entry): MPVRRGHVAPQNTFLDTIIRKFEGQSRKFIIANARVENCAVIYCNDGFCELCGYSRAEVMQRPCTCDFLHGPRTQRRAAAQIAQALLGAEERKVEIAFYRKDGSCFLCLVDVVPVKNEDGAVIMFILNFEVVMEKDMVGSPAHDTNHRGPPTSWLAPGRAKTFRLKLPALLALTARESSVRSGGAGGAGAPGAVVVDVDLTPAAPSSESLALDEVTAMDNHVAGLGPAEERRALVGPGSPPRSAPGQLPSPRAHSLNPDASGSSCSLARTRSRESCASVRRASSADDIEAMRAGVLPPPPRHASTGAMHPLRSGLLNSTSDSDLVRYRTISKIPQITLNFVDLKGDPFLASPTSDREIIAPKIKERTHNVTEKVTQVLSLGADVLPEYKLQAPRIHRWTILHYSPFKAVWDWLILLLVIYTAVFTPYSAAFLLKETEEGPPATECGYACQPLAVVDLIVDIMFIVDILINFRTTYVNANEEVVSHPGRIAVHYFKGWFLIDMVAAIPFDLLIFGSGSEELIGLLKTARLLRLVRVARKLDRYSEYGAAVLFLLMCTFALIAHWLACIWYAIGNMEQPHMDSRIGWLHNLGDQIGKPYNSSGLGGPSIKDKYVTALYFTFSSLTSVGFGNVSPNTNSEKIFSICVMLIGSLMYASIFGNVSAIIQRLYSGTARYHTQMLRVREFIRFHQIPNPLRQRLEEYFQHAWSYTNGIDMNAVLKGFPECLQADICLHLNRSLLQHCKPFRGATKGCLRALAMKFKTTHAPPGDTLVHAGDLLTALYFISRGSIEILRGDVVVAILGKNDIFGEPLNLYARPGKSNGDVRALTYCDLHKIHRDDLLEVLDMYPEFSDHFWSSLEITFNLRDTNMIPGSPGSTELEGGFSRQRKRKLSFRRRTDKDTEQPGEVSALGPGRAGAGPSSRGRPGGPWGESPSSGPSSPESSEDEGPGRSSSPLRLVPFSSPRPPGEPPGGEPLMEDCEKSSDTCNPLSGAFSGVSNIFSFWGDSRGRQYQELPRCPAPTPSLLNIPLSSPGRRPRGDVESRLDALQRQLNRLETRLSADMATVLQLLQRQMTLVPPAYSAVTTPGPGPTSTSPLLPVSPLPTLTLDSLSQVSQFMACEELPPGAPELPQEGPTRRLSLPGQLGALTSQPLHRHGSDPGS

[3] = cited from earlier work
[4] = Table 1, 100% = saturating ANP (10 nM), 0% = EC20 ANP, read-out: Emax (%)
[5] = Table 1, Formula (I-a), cGMP potentiation, ANP at EC20, read-out: EC50

IC50 [1]: > 5 µM
Structure (SMILES): CCOc1cc(F)c2nc(NC(=O)C3CCCN(CCN(C)C)C3)sc2c1 (centres unmarked) [JUF-S3-010]

GC-A activity (in words) [1]: high potency in activation of GC-A | LLE ([1]; Table 1): 5.11 | potency in activation of GC-A relative to MCUF-651 ([1]; compared to MCUF-651): ~ 10 fold
Structure (SMILES): CN1CC(N2CCCC(C(=O)Nc3nc4c(F)cc(F)cc4s3)C2)C1 (centres unmarked) [JUF-S4-029]
hERG binding (in words) [2]: did not eliminate hERG binding | toxicity from binding at hERG channel and other off-target toxicity (in words) [2]: reduced toxicity | selectivity ratio ([2]; human, compared to MCUF-651, read-out: selectivity for GC-A vs hERG relative to MCUF-651): 50 to 100

EC50 ([1]; Table 2, Formula (I-b), cGMP potentiation, ANP at EC20, read-out: EC50): > 5 µM
Structure (SMILES): CN(C)CCN1CC(C(=O)Nc2nc3c(F)cc(F)cc3s2)CCC1=O (centres unmarked) [JUF-S11-001]

LLE ([1]; Table 1): 2.91
Structure (SMILES): O=C(Nc1nc2c(F)cc(F)cc2s1)C1CCCN(CCn2cccn2)C1 (centres unmarked) [JUF-S4-012]
GC-A activity (in words) [1]: tolerated

Emax values of internal control ([1]; FIG. 2, titrated on each 384-test plate): 80-100 % response | EC50 ([1]; FIG. 2, titrated on each 384-test plate, read-out: Acceptable EC50 values of internal control): 0.2 to 0.6 µM
Structure (SMILES): CN(C)CCN1CCCC(C(=O)Nc2nc3c(F)cc(F)cc3s2)C1 (centres unmarked) [MCUF 651, reference compound]

GC-A activity (in words) [1]: loss of activity | Emax [1, 4]: 105%
Structure (SMILES): O=C(Nc1nc2c(F)cc(F)cc2s1)C1CCCN(CCN2CCCC2=O)C1 (centres unmarked) [JUF-S4-014]

Emax [1, 4]: 97%
Structure (SMILES): CN1CCCC(N2CCCC(C(=O)Nc3nc4c(F)cc(F)cc4s3)C2)C1 (centres unmarked) [JUF-S4-016]

Emax [1, 4]: 89% | LLE ([1]; Table 1): 4.09- 4.39 | EC50 [1, 5]: 0.13 µM
Structure (SMILES): CN1CCC(N2CCCC(C(=O)Nc3nc4c(F)cc(F)cc4s3)C2)C1 (centres unmarked) [JUF-S4-015]

Emax ([1]; control on each assay plate, read-out: Emax range of control compound): 75 to 85%
Structure (SMILES): CN(C)CCN1CCCC(C(=O)Nc2nc3c(F)cc(F)cc3s2)C1 (centres unmarked) [MCUF-651]
in vivo activity (in words) [3]: active in vivo | oral bioavailability (in words) ([3]; in vivo, po): orally bioavailable

IC50 [1]: 0.9 µM
Structure (SMILES): Cc1cc(F)c2nc(NC(=O)C3CCCN(CCN(C)C)C3)sc2c1 (centres unmarked) [JUF-S3-005]

GC-A activity (in words) [1]: active
Structure (SMILES): CN(C)c1ccc(N2CCCC(C(=O)Nc3nc4c(F)cc(F)cc4s3)C2)cc1 (centres unmarked) [JUF-S4-009]

IC50 [1]: > 5 µM
Structure (SMILES): O=C(Nc1nc2c(F)cc(F)cc2s1)C1CNCCO1 (centres unmarked) [JUF-S11-003A]

IC50 [1]: > 5 µM
Structure (SMILES): CN(C)CCN1CCCC(C(=O)Nc2nc3c(F)cc(C(F)(F)F)cc3s2)C1 (centres unmarked) [JUF-S3-004]

Emax [1, 4]: 84 to 89% | EC50 [1, 5]: 0.08 to 0.2 µM
Structure (SMILES): O=C(Nc1nc2c(F)cc(F)cc2s1)C1CCCN(C2CNC2)C1 (centres unmarked) [JUF-S4-029A]

Emax [1, 4]: 104 to 135% | EC50 [1, 5]: 2.5 to 7.4 µM
Structure (SMILES): O=C(Nc1nc2c(F)cc(F)cc2s1)C1CCCN(c2cccnc2)C1 (centres unmarked) [JUF-S4-025]

Emax ([1]; Table 3, 100% = saturating ANP (10 nM), 0% = EC20 ANP, read-out: Emax (%)): 112% | IC50 [1]: 6.7 µM
Structure (SMILES): COc1cc(F)c2nc(NC(=O)C3CCCN(CCN(C)C)C3)sc2c1 (centres unmarked) [JUF-S3-006]

IC50 [1]: > 5 µM
Structure (SMILES): O=C(Nc1nc2c(F)cc(F)cc2s1)C1CNCCN1C(=O)OCc1ccccc1 (centres unmarked) [JUF-S11-002A]

LLE ([1]; Table 1): 3.28- 3.72
Structure (SMILES): O=C(Nc1nc2c(F)cc(F)cc2s1)C1CCCN(c2ccncc2)C1 (centres unmarked) [JUF-S4-026]
GC-A activity (in words) [1]: active; also recorded: more active than MCUF-651 | hERG binding (in words) [2]: did not result in selectivity over hERG binding

IC50 [1]: > 5 µM
Structure (SMILES): CN(C)CCN1CCOC(C(=O)Nc2nc3c(F)cc(F)cc3s2)C1 (centres unmarked) [JUF-S11-003]

Emax [1, 4]: 81 to 86% | EC50 [1, 5]: 2.1 to 4.9 µM
Structure (SMILES): Cn1cc(N2CCCC(C(=O)Nc3nc4c(F)cc(F)cc4s3)C2)cn1 (centres unmarked) [JUF-S4-023]
